“And” between values parts separate entries of the source, which are not always exact repeats. Equal entries are not always repeated.
Tests used:
[1] = molar enthalpy of vaporization or sublimation; conditions: Liquid, Calvet Calorimetry

Cc1ccccc1-c1ccccc1 [2-methylbiphenyl]
Liquid, Transpiration method
Conditions | vapor or sublimation pressure [kPa]
301 K | 0.00376
303.5 K | 0.00477
305.9 K | 0.0056
308.4 K | 0.00692
310.9 K | 0.00851
313.4 K | 0.01043
315.9 K | 0.0128
318.4 K | 0.01527
320.8 K | 0.0183
323.3 K | 0.02232
325.8 K | 0.02641
328.3 K | 0.0314
330.7 K | 0.03763
333.2 K | 0.04446
335.7 K | 0.05183
338.1 K | 0.06106
340.6 K | 0.07203
343.1 K | 0.08401
345.6 K | 0.09811
348.1 K | 0.1141

CC(C)(C)c1cccc(-c2ccccc2)c1 [3-(1,1-dimethylethyl)-1,1'-biphenyl]
Liquid
Conditions | vapor or sublimation pressure [kPa]
323 K, Transpiration method | 0.00191
325.9 K, Transpiration method | 0.00244
328.5 K, Transpiration method | 0.00298
331 K, Transpiration method | 0.00368
333.4 K, Transpiration method | 0.00447
335.3 K, Transpiration method | 0.00514
338.2 K, Transpiration method | 0.00653
340.8 K, Transpiration method | 0.00801
343.3 K, Transpiration method | 0.00917
345.5 K, Transpiration method | 0.0113
348.1 K, Transpiration method | 0.01363
350.7 K, Transpiration method | 0.01622
353.4 K, Transpiration method | 0.01957
356 K, Transpiration method | 0.02333
358.5 K, Transpiration method | 0.0282
361.3 K, Transpiration method | 0.03303
440.79 K, Ebulliometric method (Recirculating still) | 2.117
459.53 K, Ebulliometric method (Recirculating still) | 4.346
473.75 K, Ebulliometric method (Recirculating still) | 7.152
486.07 K, Ebulliometric method (Recirculating still) | 10.66
493.76 K, Ebulliometric method (Recirculating still) | 13.5
501.46 K, Ebulliometric method (Recirculating still) | 16.96
509.1 K, Ebulliometric method (Recirculating still) | 21.07
518.78 K, Ebulliometric method (Recirculating still) | 27.41
527.38 K, Ebulliometric method (Recirculating still) | 34.27
537.26 K, Ebulliometric method (Recirculating still) | 43.86
547.55 K, Ebulliometric method (Recirculating still) | 56.03
558.29 K, Ebulliometric method (Recirculating still) | 71.52
570.25 K, Ebulliometric method (Recirculating still) | 92.61
582 K, Ebulliometric method (Recirculating still) | 118.1

Conditions | Normal boiling temperature [°C]
Liquid, Ebulliometric method (Recirculating still) | 301.34

CC(C)c1cccc(-c2ccccc2)c1 [3-(1-Methylethyl)-1,1'-biphenyl]
Liquid
Conditions | vapor or sublimation pressure
302.8 K, Transpiration method | 0.00045 kPa
303.3 K, Transpiration method | 0.00044 kPa
305.9 K, Transpiration method | 0.00061 kPa
307.8 K, Transpiration method | 0.0007 kPa
309.9 K, Transpiration method | 0.0009 kPa
312.9 K, Transpiration method | 0.00122 kPa
313.3 K, Transpiration method | 0.00116 kPa
315.9 K, Transpiration method | 0.00146 kPa
317.9 K, Transpiration method | 0.00187 kPa
319.9 K, Transpiration method | 0.00217 kPa
322.9 K, Transpiration method | 0.00265 kPa and 0.00276 kPa
323.3 K, Transpiration method | 0.0025 kPa
325.8 K, Transpiration method | 0.00378 kPa
327.8 K, Transpiration method | 0.00388 kPa
328 K, Transpiration method | 0.00408 kPa
329.8 K, Transpiration method | 0.00479 kPa
332.3 K, Transpiration method | 0.00644 kPa
332.8 K, Transpiration method | 0.0062 kPa
333.3 K, Transpiration method | 0.0064 kPa and 0.00674 kPa and 0.0065 kPa
333.4 K, Transpiration method | 0.00634 kPa and 0.00708 kPa
335.3 K, Transpiration method | 0.0078 kPa
335.8 K, Transpiration method | 0.00832 kPa
336.3 K, Transpiration method | 0.00811 kPa and 0.0082 kPa
337.3 K, Transpiration method | 0.00945 kPa
337.7 K, Transpiration method | 0.00887 kPa
338 K, Transpiration method | 0.00931 kPa
338.3 K, Transpiration method | 0.00975 kPa
340.3 K, Transpiration method | 0.01113 kPa
342.3 K, Transpiration method | 0.01244 kPa
343.1 K, Transpiration method | 0.01478 kPa and 0.01437 kPa
343.3 K, Transpiration method | 0.01376 kPa and 0.01441 kPa
345.3 K, Transpiration method | 0.01629 kPa and 0.01561 kPa
347.3 K, Transpiration method | 0.01952 kPa and 0.01755 kPa
348.3 K, Transpiration method | 0.01973 kPa and 0.02029 kPa and 0.02064 kPa
349.3 K, Transpiration method | 0.02026 kPa
351.3 K, Transpiration method | 0.02423 kPa
353.2 K, Transpiration method | 0.02884 kPa
353.3 K, Transpiration method | 0.02848 kPa
358.2 K, Transpiration method | 0.04134 kPa
434.53 K, Ebulliometric method (Recirculating still) | 2.17 kPa
452.99 K, Ebulliometric method (Recirculating still) | 4.346 kPa
467.03 K, Ebulliometric method (Recirculating still) | 7.152 kPa
479.19 K, Ebulliometric method (Recirculating still) | 10.66 kPa
486.79 K, Ebulliometric method (Recirculating still) | 13.5 kPa
494.39 K, Ebulliometric method (Recirculating still) | 16.96 kPa
501.93 K, Ebulliometric method (Recirculating still) | 21.07 kPa
511.48 K, Ebulliometric method (Recirculating still) | 27.41 kPa
519.96 K, Ebulliometric method (Recirculating still) | 34.27 kPa
529.73 K, Ebulliometric method (Recirculating still) | 43.86 kPa
539.88 K, Ebulliometric method (Recirculating still) | 56.03 kPa
550.47 K, Ebulliometric method (Recirculating still) | 71.52 kPa
562.29 K, Ebulliometric method (Recirculating still) | 92.61 kPa
573.95 K, Ebulliometric method (Recirculating still) | 118.1 kPa

Conditions | Normal boiling temperature, Ebulliometric method (Recirculating still) [°C] | molar enthalpy, 323.15 K [kcal/mol] | molar enthalpy, 333.15 K [kcal/mol] | molar enthalpy, 343.15 K [kcal/mol] | molar enthalpy, 353.15 K [kcal/mol] | molar enthalpy, 363.15 K [kcal/mol] | molar enthalpy, 373.15 K [kcal/mol]
Liquid | 293.39 | – | – | – | – | – | –
[1] | – | 17.8 | 17.5 | 17.3 | 17.1 | 16.8 | 16.6

Cc1cccc(-c2ccccc2)c1 [3-methylbiphenyl]
Liquid, Transpiration method
Conditions | vapor or sublimation pressure [kPa]
318.8 K | 0.00702
320.4 K | 0.00797
323.3 K | 0.01012
325.5 K | 0.01178
328.1 K | 0.01408
330.3 K | 0.01692
333.1 K | 0.02024
336.1 K | 0.02586
338.5 K | 0.03025
340.4 K | 0.03425
343.2 K | 0.04154
346.4 K | 0.05071
348.5 K | 0.05569
350.8 K | 0.06543
353.7 K | 0.07738
356.2 K | 0.09688
358.3 K | 0.1068
360.8 K | 0.1231
363.6 K | 0.1459
365.8 K | 0.1642

CC(C)(C)c1ccc(-c2ccc(C(C)(C)C)cc2)cc1 [4,4'-bis(1,1-dimethylethyl)-1,1'-biphenyl]
Crystal, Transpiration method
Conditions | vapor or sublimation pressure [kPa]
335.5 K | 7.9e-05
338.5 K | 0.00011
341.5 K | 0.000146
343.5 K | 0.000176
348.2 K | 0.000291
351.5 K | 0.000425
353.9 K | 0.000537
358.5 K | 0.000887
363.7 K | 0.001398
365.5 K | 0.001697
368.6 K | 0.002328
370.5 K | 0.002679
373.5 K | 0.003653
373.7 K | 0.003396
375.7 K | 0.004092
378.2 K | 0.005541
380.4 K | 0.006527
382.5 K | 0.007664
384.7 K | 0.009379

Cc1ccc(-c2ccc(C)cc2)cc1 [4,4'-dimethylbiphenyl]
Crystal, Transpiration method
Conditions | vapor or sublimation pressure [kPa]
334.2 K | 0.00389
339.3 K | 0.00638
343.2 K | 0.00955
349.2 K | 0.01668
353.7 K | 0.02516
354.6 K | 0.02591
358.8 K | 0.03834
363.7 K | 0.05681
368.7 K | 0.08722
374.5 K | 0.1474
379.5 K | 0.2146

CC(C)(C)c1ccc(-c2ccccc2)cc1 [4-(1,1-dimethylethyl)-1,1'-biphenyl]
Liquid, Ebulliometric method (Recirculating still)
Conditions | vapor or sublimation pressure [kPa]
448.41 K | 2.117
467.65 K | 4.346
482.23 K | 7.152
494.83 K | 10.66
502.69 K | 13.5
510.59 K | 16.96
518.4 K | 21.07
528.31 K | 27.41
537.1 K | 34.27
547.22 K | 43.86
557.74 K | 56.03
568.72 K | 71.52
580.98 K | 92.61
593.09 K | 118.1

Conditions | Normal boiling temperature [°C]
Liquid, Ebulliometric method (Recirculating still) | 312.24

Cc1ccc(-c2ccccc2)cc1 [4-methylbiphenyl]
Conditions | Normal boiling temperature [°C]
Liquid, Ebulliometric method (Recirculating still) | 274.4
